Measurements taken from US10788496B2, “MEK1 mutation conferring resistance to RAF and MEK inhibitors” (Dana-Farber Cancer Institute, Inc., priority 2010, dated 2020).

What was measured:
[1] = tested on: A375 cells expressing the MEK1 C121S mutation; assay: Growth inhibition of A375 melanoma cells transfected with MEK1 C121S mutant; assay type: cell-based; details: for resistance of cells to the inhibitor (in words): A375 cells expressing MEK1 C121S, growth inhibition; for fold greater GI-50 value of MEK1 C121S cells: versus wild-type A375 cells or A375 cells expressing MEK-WT (for AZD6244 also MEK-DD)
Excerpt: FIGS. 1A and 1B are graphs showing the percent growth inhibition of A375 melanoma cells treated with increasing concentrations (in μM) of either the BRAF inhibitor PLX4720 (FIG. 1A) or the MEK1 inhibitor AZD6244 (FIG. 1B), wherein the A375 cells were either untransfected (A375), transfected with wild-type MEK1 (MEK-WT), transfected with the MEK1 C121S mutant (MEK-C121S) or transfected with a constitutively active MEK variant (MEK-DD).
It has previously been shown that mutations proximal to the C-helix of MEK1 can confer resistance to BRAF inhibition by PLX4032 by upregulating intrinsic MEK1 kinase activity (Emery, C. M. et al., (2009) Proc. Natl. Acad. Sci. USA 106:20411-20416). Therefore, it seemed plausible that the MEK1 C121 mutation, which is also located proximal to the C-helix, might have caused resistance to PLX4032 in the patient's recurrent tumor. To test this, the C121S was introduced mutation into the sequence of wild-type MEK1 and the mutant cDNA was expressed in the A375 melanoma cell line, which harbors a BRAF V600E mutation. To introduce the […] mutation into the wild-type MEK1 sequence, MEK1 site-directed mutagenesis was performed as previously described (Emery, C. M. et al., (2009) Proc. Natl. Acad. Sci. USA […]). Briefly, MEK1 cDNA was amplified by PCR and site-directed mutagenesis was conducted using Quick-Change II (Stratagene) as per the manufacturer's instructions. As controls, the wild-type MEK1 sequence or a constitutively active variant of MEK1, referred to as MEK1-DD, was expressed in the A375 melanoma cells.
To examine the effect of the MEK1 C121S mutation on responsiveness of the A375 melanoma cells to inhibitors, A375 cells (either untransfected cells, or cells transfected with either the wild-type MEK1, the C121S mutant MEK1, or the constitutively active variant MEK1-DD) were treated with increasing amounts of either the BRAF inhibitor PLX4720 (purchased from Symansis, Inc.), which is a compound closely related to PLX4032, or the MEK1 inhibitor AZD6244 (purchased from Selleck Chemical Co., Ltd.). The results are shown in the graphs of FIGS. 1A (PLX4720 treatment) and 1B (AZD6244 treatment).

[2] = tested on: MEK; details: cited from earlier work
[3] = tested on: human colon cancer xenograft; details: cited from earlier work
[4] = tested on: metastatic melanoma with BRAF V600E mutation; assay: Case of a patient with BRAF V600E metastatic melanoma treated with PLX4032 in a clinical trial; assay type: in vivo, human; details: single patient
Experimental: The patient was a person who was diagnosed with metastatic melanoma in February 2009. […] They were treated with several therapeutic regimens with minimal clinical response. By October 2009, the patient had developed numerous subcutaneous metastatic deposits.
In late February 2010, after 4 months of therapy with PLX4032, the patient rapidly developed new subcutaneous nodules all over their body and PLX4032 was stopped. At this point, they provided written informed consent and a percutaneous core biopsy of a recurrent subcutaneous nodule on the chest was obtained. In order to determine possible mechanisms of resistance to PLX4032 in this tumor, the exons from 138 cancer genes from this sample were sequenced using massively parallel sequencing. The patient continued to have rapid progression of their disease and died on hospice in March 2010.

[5] = tested on: melanoma with BRAF V600E mutations; details: cited from earlier work

SMILES: Cn1cnc2c(F)c(Nc3ccc(Br)cc3Cl)c(C(=O)NOCCO)cc21 [AZD6244]
- resistance of cells to the inhibitor (in words) [1]: strongly resistant
- fold greater GI-50 value of MEK1 C121S cells [1]: ~1000 fold

SMILES: O=C(NOCC1CC1)c1ccc(F)c(F)c1Nc1ccc(I)cc1Cl [CI-1040]
- MEK inhibition in cell-based assays (in words) [2]: inhibited MEK
- effect on xenograft growth (in words) [3]: reduced human colon cancer xenograft growth

SMILES: CCCS(=O)(=O)Nc1ccc(F)c(C(=O)c2c[nH]c3ncc(-c4ccc(Cl)cc4)cc23)c1F [PLX4032]
- duration of therapy until new subcutaneous nodules developed (relapse) [4]: 4 months
- tumor response (in words) ([4]; after 15 weeks of therapy): near complete regression of all visible tumor nodules
- time to visible partial response ([4]; from starting PLX4032): ≤ 2 weeks
- patients with at least 30% tumor response by RECIST criteria ([5]; Phase I, 19 of 27 patients, oral): 70%
- average time to relapse (resistance) ([5]; patients treated with PLX4032): 9 months

SMILES: CCCS(=O)(=O)Nc1ccc(F)c(C(=O)c2c[nH]c3ncc(Cl)cc23)c1F [PLX4720]
- resistance of cells to the inhibitor (in words) [1]: strongly resistant
- fold greater GI-50 value of MEK1 C121S cells [1]: 100 fold
